# Columns and labels:
# A431 cells = experiment: In vitro proliferation (MTT) of A431 cells; type: cell-based; conditions: A431 cells express the wild type EGFR; FIG. 4
# Protocol: (§1) Example 1: MTT Assay Protocol
# (§2) An MTT assay can be performed to screen compounds for suitability as an EGFR inhibitor. A sample MTT assay protocol is as follows:
# (§3) SKBR3, BT474, MDA-MB-231, MDA-MB-453, MDA-MB-468, Ml: 5000 cells/well, 5% FBS; NE91, NR6 and NR6 derived cell lines: 2500 cells/well, 5% FBS; H1975: 5000 cells/well, 1% FBS).
# (§4) Add 50 μl medium with different concentrations of inhibitors. Incubate at 37° C., 5% CO2 for 72 hrs.
# (§5) Replace the medium with 100 μl of fresh medium. Leave at 37° C., 5% CO2 for 4 hrs.
# (§6) Add 25 μl of MIT (5 mg/ml stock solution, final concentration 1 mg/ml) to each well. Incubate the microtrays for 2 hours at 37° C.
# (§7) Add 100 μl extraction buffer (50% DMF/20% SDS at pH 4.7) to each well.
# (§8) Incubate overnight at 37° C. and OD measurements at 570 nm.
# (§9) A MTT assay protocol is also described in Hansen et al., “Re-examination and further development of a precise and rapid dye method for measuring cell growth/cell kill,” J. Immunol. Methods 119:203-210 (1989).
# (§10) Essays conducted as outlined in Examples 1 and 2.
# EGFR(C797S) = EGFR(C797S) (Homo sapiens, UniProt P00533, C797S); experiment: RBC HotSpot kinase assay, EGFR mutants, 10 μM ATP; type: biochemical; conditions: FIG. 3
# Protocol: (§11) Example 2: RBC HotSpot Kinase Assay Protocol
# (§12) An RBC HotSpot Kinase Assay can be performed to determine kinase activity data. A sample RBC HotSpot KinaseAssay protocol is as follows:
# (§13) Reagent: Base Reaction buffer; 20 mM Hepes (pH 7.5), 10 mM MgCl2, 1 mM EGTA, 0.02% Brij35, 0.02 mg/ml BSA, 0.1 mM Na3VO4, 2 mM DTT, 1% DMSO
# (§14) Add required cofactors individually to each kinase reaction.
# (§15) Compound handling: Dissolve testing compounds in 100% DMSO to specific concentration. Serial dilution can be conducted using Integra Viaflo Assist in DMSO.
# (§16) Prepare substrate in freshly prepared Reaction Buffer.
# (§17) Deliver any required cofactors to the substrate solution above.
# (§18) Deliver kinase into the substrate solution and gently mix.
# (§19) Deliver compounds in 100% DMSO into the kinase reaction mixture by Acoustic technology (Echo550; nanoliter range) and incubate for 20 min at room temp.
# (§20) Deliver ^33P-ATP (Specific activity 10 μCi/μl) into the reaction mixture to initiate the reaction.
# (§21) Incubate for 2 hours at room temperature.
# (§22) Detect radioactivity by filter-binding method.
# (§23) Kinase activity data can be expressed as the percent remaining kinase activity in test samples compared to vehicle (dimethyl sulfoxide) reactions. IC50 values and curve fits can be obtained using Prism (GraphPad Software).
# as §10
# EGFR(L858R/T790M/C797S) = EGFR(L858R/T790M/C797S) (Homo sapiens, UniProt P00533, C797S/L858R/T790M); experiment: RBC HotSpot kinase assay, EGFR mutants, 10 μM ATP; type: biochemical; conditions: FIG. 3
# Protocol: as §11, §12, §13, §14, §15, §16, §17, §18, §19, §20, §21, §22, §23, §10
# [1] = target: EGFR(d746-750/T790M/C797 S) (Homo sapiens, UniProt P00533, C797S/DEL746-750/T790M); experiment: RBC HotSpot kinase assay, EGFR mutants, 10 μM ATP; type: biochemical; conditions: FIG. 3
# Protocol: as §11, §12, §13, §14, §15, §16, §17, §18, §19, §20, §21, §22, §23, §10
# NCI-H1975 cells = experiment: In vitro proliferation (MTT) of NCI-H1975 cells; type: cell-based; conditions: FIG. 4; for activity against NCI-H1975 cells (proliferation): NCI-H1975 cells express the EGFR(T790M) mutant; for IC50: Homo sapiens, NCI-H1975 cells, EGFR(T790M) mutant, read-out: IC50, inhibition of NCI-H1975 cell proliferation
# Protocol: as §1, §2, §3, §4, §5, §6, §7, §8, §9, §10
Structure (SMILES),activity against A431 cells (proliferation) (A431 cells),activity against EGFR(C797S) (EGFR(C797S)),activity on EGFR(L858R/T790M/C797S) (EGFR(L858R/T790M/C797S)),activity on EGFR(d746-750/T790M/C797 S) [1],activity against NCI-H1975 cells (proliferation) (NCI-H1975 cells),IC50 (NCI-H1975 cells),activity against NCI-H1975 cells (proliferation) (NCI-H1975 cells; listed as SG1-105)
CCOc1cc2ncnc(Nc3ccc(F)c(Cl)c3)c2cc1NC(=O)/C=C/CN(C)CCCO [SGI-078],weak activity,very strong activity,good activity,good activity,better activity,–,–
CCOc1cc2ncnc(Nc3ccc(F)c(Cl)c3)c2cc1NC(=O)/C=C/CN(C)CCCOC [SGI-105],weak activity,very strong activity,good activity,good activity,better activity,181 nM,more active than SGI-078
